Test results: article PMC4368042 (ACS Chemical Neuroscience, 2015)
pEC50, pKi: −log10 of the molar value. “Also recorded” adds a separate entry of the source.

Assays:
[1] = target: hM3 (native human M3 receptor) (Homo sapiens, UniProt P20309); test: cell-based; type: cell-based; conditions: for Emax: read-out: hM3 Emax (relative to acetylcholine)
hM3Dq = hM3Dq (Homo sapiens, UniProt P20309, A239G/Y149C); test: cell-based; type: cell-based; conditions: for Emax: read-out: hM3Dq Emax (relative to CNO); for hM3Dq potency decrease on replacing methyl with n-propyl: 4d vs 4a, 5d vs 5a
α1A = target: T1, α1A (Homo sapiens, UniProt P35348); test: α1A radioligand binding assay; conditions: for pKi: Ki α1A, radioligand binding
T1 sequence (P35348 1-466): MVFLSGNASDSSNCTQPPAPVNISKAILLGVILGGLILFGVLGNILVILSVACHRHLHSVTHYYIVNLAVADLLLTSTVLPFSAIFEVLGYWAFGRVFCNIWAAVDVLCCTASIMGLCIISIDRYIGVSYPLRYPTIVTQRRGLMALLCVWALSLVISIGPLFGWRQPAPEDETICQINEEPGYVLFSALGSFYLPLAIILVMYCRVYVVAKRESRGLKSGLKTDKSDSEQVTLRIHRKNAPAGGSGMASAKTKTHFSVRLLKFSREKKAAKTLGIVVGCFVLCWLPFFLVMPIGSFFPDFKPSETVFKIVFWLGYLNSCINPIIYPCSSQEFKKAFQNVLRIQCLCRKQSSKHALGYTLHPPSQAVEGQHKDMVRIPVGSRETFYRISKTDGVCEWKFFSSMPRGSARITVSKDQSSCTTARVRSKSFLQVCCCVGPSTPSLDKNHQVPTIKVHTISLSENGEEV

5HT2C = target: T2, 5HT2C (Homo sapiens, UniProt P28335); test: 5HT2C radioligand binding assay; conditions: for pKi: Ki 5HT2C, radioligand binding
T2 sequence (P28335 33-458): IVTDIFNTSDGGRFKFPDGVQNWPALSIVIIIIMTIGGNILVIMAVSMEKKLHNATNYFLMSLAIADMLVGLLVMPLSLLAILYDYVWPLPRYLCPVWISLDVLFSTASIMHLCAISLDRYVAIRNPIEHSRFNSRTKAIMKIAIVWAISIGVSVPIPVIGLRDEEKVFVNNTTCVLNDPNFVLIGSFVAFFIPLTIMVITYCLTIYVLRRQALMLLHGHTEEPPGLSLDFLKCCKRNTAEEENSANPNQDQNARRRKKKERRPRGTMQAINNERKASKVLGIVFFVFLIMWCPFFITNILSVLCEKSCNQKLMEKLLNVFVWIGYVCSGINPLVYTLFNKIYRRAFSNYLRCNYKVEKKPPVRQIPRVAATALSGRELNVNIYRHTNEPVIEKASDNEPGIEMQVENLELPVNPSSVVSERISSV

H1 = H1 (Homo sapiens, UniProt P35367); test: biochemical; type: binding; conditions: for pKi: Ki H1, radioligand binding
5HT2A = 5HT2A (Homo sapiens, UniProt P28223); test: biochemical; type: binding; conditions: for pKi: Ki 5HT2A, radioligand binding
Chain of 5HT2A (P28223 whole entry, species assumed): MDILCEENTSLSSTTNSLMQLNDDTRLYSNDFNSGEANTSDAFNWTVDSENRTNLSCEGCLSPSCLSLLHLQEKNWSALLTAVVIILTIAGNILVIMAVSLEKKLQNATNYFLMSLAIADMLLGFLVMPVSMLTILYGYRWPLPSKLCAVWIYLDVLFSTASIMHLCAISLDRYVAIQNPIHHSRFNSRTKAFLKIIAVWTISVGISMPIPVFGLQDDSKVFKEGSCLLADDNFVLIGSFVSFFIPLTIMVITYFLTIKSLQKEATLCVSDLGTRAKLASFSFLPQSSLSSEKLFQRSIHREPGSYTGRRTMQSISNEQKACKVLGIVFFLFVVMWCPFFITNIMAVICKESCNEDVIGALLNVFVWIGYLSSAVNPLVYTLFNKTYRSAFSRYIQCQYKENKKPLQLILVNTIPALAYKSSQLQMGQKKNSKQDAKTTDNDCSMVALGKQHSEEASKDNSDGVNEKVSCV

Chain of hM3Dq (P20309 whole entry Y149C/A239G): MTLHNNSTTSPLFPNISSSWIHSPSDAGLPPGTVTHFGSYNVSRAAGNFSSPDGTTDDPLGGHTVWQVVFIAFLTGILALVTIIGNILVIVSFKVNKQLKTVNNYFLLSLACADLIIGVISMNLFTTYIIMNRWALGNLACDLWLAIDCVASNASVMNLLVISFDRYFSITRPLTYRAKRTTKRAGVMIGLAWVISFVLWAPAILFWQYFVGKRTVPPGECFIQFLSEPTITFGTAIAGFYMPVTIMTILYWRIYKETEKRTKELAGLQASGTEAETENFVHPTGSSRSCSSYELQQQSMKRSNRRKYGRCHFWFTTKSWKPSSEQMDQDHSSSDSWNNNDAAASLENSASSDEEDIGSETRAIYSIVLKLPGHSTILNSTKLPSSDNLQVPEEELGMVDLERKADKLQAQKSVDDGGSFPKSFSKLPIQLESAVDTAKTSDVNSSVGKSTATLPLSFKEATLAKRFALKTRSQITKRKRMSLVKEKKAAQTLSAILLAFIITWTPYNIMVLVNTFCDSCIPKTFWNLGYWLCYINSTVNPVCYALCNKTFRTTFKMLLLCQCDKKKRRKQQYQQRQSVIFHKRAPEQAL
Chain of H1 (P35367 whole entry): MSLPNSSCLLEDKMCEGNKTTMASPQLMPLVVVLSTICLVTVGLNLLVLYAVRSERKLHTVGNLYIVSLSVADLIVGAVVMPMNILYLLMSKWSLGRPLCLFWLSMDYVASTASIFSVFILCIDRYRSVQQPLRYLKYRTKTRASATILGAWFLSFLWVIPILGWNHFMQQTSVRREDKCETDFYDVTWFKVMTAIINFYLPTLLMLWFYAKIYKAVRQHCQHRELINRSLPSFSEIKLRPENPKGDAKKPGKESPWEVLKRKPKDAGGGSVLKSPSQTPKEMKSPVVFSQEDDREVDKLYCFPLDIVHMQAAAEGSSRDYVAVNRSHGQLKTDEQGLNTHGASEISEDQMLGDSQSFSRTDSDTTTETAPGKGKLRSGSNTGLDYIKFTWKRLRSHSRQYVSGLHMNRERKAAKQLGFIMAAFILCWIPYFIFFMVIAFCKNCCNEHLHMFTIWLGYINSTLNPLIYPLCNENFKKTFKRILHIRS
Chain of hM3 (native human M3 receptor) (P20309 whole entry): as the sequence (P20309 whole entry Y149C/A239G) above, with C149Y, G239A counted along it

Structure (SMILES) | agonist activity for hM3 (in words) [1] | agonist activity for hM3Dq (in words) (hM3Dq) | pEC50 [1] | pEC50 (hM3Dq) | Emax (hM3Dq) | also measured
CC(=O)OCC[N+](C)(C)C [ACh, acetylcholine, reference compound] | potent hM3 agonist | does not activate | – | – | – | –
CC(C)N1CCN(C2=Nc3cc(Cl)ccc3Nc3ccccc32)CC1 [Compound 4c, 8-Chloro-11-(4-isopropylpiperazin-1-yl)-5H-dibenzo[b,e][1,4]diazepine] | – | – | < 4.52 | 7.89 | 45% | pKi (α1A): 7.43; pKi (5HT2C): 7.77; pKi (H1): 8.34
CCCN1CCN(C2=Nc3cc(Cl)ccc3Nc3ccccc32)CC1 [Compound 4d, 8-Chloro-11-(4-propylpiperazin-1-yl)-5H-dibenzo[b,e][1,4]diazepine] | – | – | < 4.52 | 7.15 | 50% | hM3Dq potency decrease on replacing methyl with n-propyl (hM3Dq): approximately 70 fold
CC[N+]1([O-])CCN(C2=Nc3cc(Cl)ccc3Nc3ccccc32)CC1 [Compound 5b, 4-(8-Chloro-5H-dibenzo[b,e][1,4]diazepin-11-yl)-1-ethylpiperazine N-oxide] | – | – | < 4.52 | 7.72 | 50% | pKi (α1A): < 6.00; pKi (5HT2A): 5.72; pKi (5HT2C): 5.29; selectivity for hM3Dq over H1 (H1): about 8 fold; pKi (H1): 6.80
CC(C)[N+]1([O-])CCN(C2=Nc3cc(Cl)ccc3Nc3ccccc32)CC1 [Compound 5c, 4-(8-Chloro-5H-dibenzo[b,e][1,4]diazepin-11-yl)-1-isopropylpiperazine N-oxide] | – | – | < 4.52 | 6.72 | 45% | selectivity for hM3Dq over α1A (α1A): about 2 fold; pKi (α1A): 6.49; pKi (5HT2A): 5.28; pKi (5HT2C): 5.17; pKi (H1): 5.21
CCC[N+]1([O-])CCN(C2=Nc3cc(Cl)ccc3Nc3ccccc32)CC1 [Compound 5d, 4-(8-Chloro-5H-dibenzo[b,e][1,4]diazepin-11-yl)-1-propylpiperazine N-oxide] | – | – | < 4.52 | 6.13 | 79% | hM3Dq potency decrease on replacing methyl with n-propyl (hM3Dq): ~100 fold
C[N+]1(C)CCN(C2=Nc3cc(Cl)ccc3Nc3ccccc32)CC1.[I-] [Compound 6, 4-(8-Chloro-5H-dibenzo[b,e][1,4]diazepin-11-yl)-1,1-dimethylpiperazin-1-ium iodide] | – | – | 8.02 | 10.16 | 100% | selectivity for hM3Dq over hM3 [1]: > 100 fold; Emax [1]: 92%; fold more potent than compound 4a (clozapine) at hM3Dq (hM3Dq): about 15 fold
O=C1CN(C2=Nc3cc(Cl)ccc3Nc3ccccc32)CCN1 [Compound 7, 4-(8-Chloro-5H-dibenzo[b,e][1,4]diazepin-11-yl)piperazin-2-one] | did not activate | did not display any agonist activity | < 4.52 | < 4.52 | – | –
O=C1NC(=O)C2(CCN(C3=Nc4cc(Cl)ccc4Nc4ccccc43)CC2)N1 [Compound 9, 8-(8-Chloro-5H-dibenzo[b,e][1,4]diazepin-11-yl)-1,3,8-triazaspiro[4.5]decane-2,4-dione] | did not activate | did not activate | < 4.52 | < 4.52 | – | –
NC1(C(=O)O)CCN(C2=Nc3cc(Cl)ccc3Nc3ccccc32)CC1 [Compound 10, 4-Amino-1-(8-chloro-5H-dibenzo[b,e][1,4]diazepin-11-yl)piperidine-4-carboxylic acid] | did not activate | did not activate | < 4.52 | < 4.52 | – | –
CC(=O)N1CCN(C2=Nc3cc(Cl)ccc3Nc3ccccc32)CC1 [Compound 12, 1-(4-(8-Chloro-5H-dibenzo[b,e][1,4]diazepin-11-yl)piperazin-1-yl)ethanone] | did not activate | did not display any agonist activity | < 4.52 | < 4.52 | – | –
CS(=O)(=O)N1CCN(C2=Nc3cc(Cl)ccc3Nc3ccccc32)CC1 [Compound 14, 8-Chloro-11-(4-(methylsulfonyl)piperazin-1-yl)-5H-dibenzo[b,e][1,4]diazepine] | did not activate | did not display any agonist activity | < 4.52 | < 4.52 | – | –
c1ccc2c(c1)N=C(N1CCNCC1)c1ccccc1N2 [Compound 21, 11-(Piperazin-1-yl)-5H-dibenzo[b,e][1,4]diazepine] | do not activate; also recorded: inactive | – | – | 8.77 | 100% | selectivity for hM3Dq over α1A (α1A): 165 fold; pKi (α1A): 6.55; selectivity for hM3Dq over 5HT2A (5HT2A): 40 fold; pKi (5HT2A): 7.18; Emax [1]: ~20%; selectivity for hM3Dq over 5HT2C (5HT2C): 100 fold; pKi (5HT2C): 6.77; selectivity for hM3Dq over H1 (H1): 3.5 fold; pKi (H1): 8.22
CCN1CCN(C2=Nc3ccccc3Nc3ccccc32)CC1 [Compound 22, 11-(4-Ethylpiperazin-1-yl)-5H-dibenzo[b,e][1,4]diazepine] | did not exhibit any agonist activity | – | – | – | 81% | –
CC[N+]1([O-])CCN(C2=Nc3ccccc3Nc3ccccc32)CC1 [Compound 23, 4-(5H-Dibenzo[b,e][1,4]diazepin-11-yl)-1-ethylpiperazine N-oxide] | did not exhibit any agonist activity | – | < 4.52 | 6.66 | 59% | fold less potent for hM3Dq than compound 5b (hM3Dq): about 10 fold
CN1CCN(C2=Nc3ccccc3Cc3ccccc32)CC1 [perlapine, reference compound] | – | – | – | – | – | selectivity for hM3Dq over hM3 [1]: > 10 000 fold
